Read-outs that look alike come from different tables or passages of the source.
Experiments:
Aliivibrio fischeri = type: cell-based
Protocol: Furthermore, a representative subset was tested on Aliivibrio fischeri growth (formerly known as Vibrio fischeri), a bacterium used in the Microtox assay to test toxic substances in different substrates such as (drinking) water, air, soils and sediments.
Two of these variants were also tested on Aliivibrio fischeri to test possible toxicity.

agricultural soils = test: In soil nitrification inhibition assay; settings: Soil 2; for inhibition at 50 µM / inhibition at 100 µM: soil; for inhibition at 50 µM: 50 µM of each compound; for inhibition at 100 µM: 168 h; for inhibition at 100 µM / Nitrification inhibition (%): 7 days, 100 µM of each compound, 6 inhibitors alone and combined with Example 2
Protocol: Top layer (0 to 10 cm) soil samples were collected from different fields in Belgium (Merelbeke, Sint-Laureins and Moorslede). Vegetation was removed and samples were taken from different plots. All soil samples were mixed and sieved (mesh size 2.8 mm) to filter large debris and homogenize soil. The soil was stored at 5° C. in plastic containers covered with Saran foil to prevent changes in microbial community composition and to maintain the original soil water content.
Soil water content was determined by drying 20 g soil for ≥ 48 h in a 60° C. oven and measuring weight before and after drying. Based on the soil water content (± 20%), compound solutions were prepared so that addition of 200 µl compound and 200 µl NH4Cl solution would result in a final compound concentration of 50 µM (unless otherwise stated) and a final NH4+ concentration of 10 mM. Per treatment, 5 small pots were filled with 20 g soil. Next, the soil was treated first with the respective compound solution and then with the NH4Cl solution. Per tray, positive (50 µM DMP) and negative controls (DMSO) were included. […] Demineralized water was added to the soil every 2 to 3 days to a soil weight of 20 g. In the end, each sample of 20 g soil was dissolved in 100 ml 1 M KCI and shaken for 1 hour, followed by filtration through Whatmann® paper. The filtrate was used to measure pH, NH4+ and NO3— concentrations. The nitrification percentage was calculated as the ratio of the consumed ammonium in treated soil versus the consumed ammonium in non-treated soil; the nitrification inhibition percentage was calculated as ‘100% - the nitrification percentage’.

[1] = system: Nitrososphaera viennensis; test: Nitrification inhibition assay on Nitrososphaera viennensis (nitrite, Griess); type: cell-based, Nitrososphaera viennensis EN76T; settings: for activity at 2.5 µM: Nitrososphaera viennensis, 2.5 µM compound, structural variants outside formula (I), read-out: Relative nitrification (%) by Nitrososphaera viennensis treated with 2.5 µM compound
Summary of the method: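 N. viennensis EN76T cultures in FWM (pH 7.5, NH4Cl-supplemented), 5× concentrated, treated with compounds at 2.5 µM final (0.25% DMSO) and incubated 24 h at 42 °C. Nitrite measured by Griess absorbance at 540 nm against a standard curve. Relative nitrification normalized between DMSO (no compound) and 100 µM PTIO controls.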

[2] = system: ABIL (ammonia-binding liquid inoculum), nitrifying microbial enrichment containing both AOA and AOB; test: Nitrification inhibition assay on ABIL (ammonium consumption); type: cell-based; settings: for activity at 10 µM: 10 µM compound
[3] = structural variants outside formula (I), read-out: Relative nitrification (%) by ABIL treated with 10 µM compound

| SMILES | activity at 2.5 µM [1] | activity at 10 µM [2, 3] | other results |
| --- | --- | --- | --- |
| N#Cc1nn(CN2CCSCC2)c2ccc(Cl)cc12 [drawing 171] |  |  | Growth of Aliivibrio fischeri, relative to control without compound (%) (Aliivibrio fischeri): 3% |
| S=C1NCCS1 [1,3-thiazolidine-2-thione] |  |  | inhibition at 50 µM (agricultural soils; 120 h, 5 days): 59%; inhibition at 100 µM (agricultural soils): 46% |
| Cc1cn(C(CC(=O)O)C(=O)O)nc1C (centres unmarked) [DMPSA, 2-(3,4-dimethyl-pyrazol-1-yl)-succinic acid] |  |  | inhibition at 50 µM (agricultural soils; 72 h, 3 days): 47%; inhibition at 100 µM (agricultural soils): 44% |
| N#CN=C(N)N [DCD, dicyandiamide] |  |  | Nitrification inhibition (%) (agricultural soils): 0% |
| c1nc[nH]n1 [1,2,4-triazole, 1H-1,2,4-triazole] |  |  | Nitrification inhibition (%) (agricultural soils): 32% |
| Cc1nn(C)c2nc(C(C)C)cc(C(=O)N(C)c3nc4ccccc4s3)c12 [Example 3] |  |  | N. viennensis - relative nitrification (%) at 0.5 µM ([1]; 0.5 µM compound, 0% = as strong as 100 µM PTIO, 100% = no inhibition): 49%; N. viennensis - relative nitrification (%) at 5 µM ([1]; 5 µM compound, 0% = as strong as 100 µM PTIO, 100% = no inhibition): 0%; N. viennensis - relative nitrification (%) at 25 µM ([1]; 25 µM compound, 0% = as strong as 100 µM PTIO, 100% = no inhibition): 0%; ABIL - relative nitrification (%) at 2 µM ([2]; 2 µM compound, 0% = as strong as 100 µM PTIO, 100% = no inhibition): -30%; activity at 10 µM ([2]; 24 h, 24 h, 0% = as strong as 100 µM PTIO, 100% = no inhibition, read-out: ABIL - relative nitrification (%) at 10 µM): -41% |
| COC1(C(=O)Nc2ccc(-n3ncc4ccccc43)cc2)CCOC1 (centres unmarked) [Example 134] | 100% | 100% |  |
| O=S(=O)(Nc1n[nH]c2ccccc12)c1ccccc1C(F)(F)F [Example 139] | 97% | 100% |  |
| COc1ccc(OC)c(C(C)NC(=O)c2cnc3c(cnn3C(C)C)c2)c1 (centres unmarked) [Example 39] | 100% | 97% |  |
| CC(=O)c1ccc(OCC(=O)Nc2cnc3c(cnn3C(C)C)c2)cc1 [Example 87] | 93% | 100% |  |
| O=S1(=O)CCCN1c1cccc(NCc2cccc3cn[nH]c23)c1 [Example 106] | 100% | 94% |  |
| COCCN1CCN(Cc2cccc3cn[nH]c23)CC1=O [Example 164] | 100% | 100% |  |
| Cc1nc2c(c(C)nn2C)c(C)c1CCC(=O)Nc1ccccc1C(=O)O [Example 77] | 100% | 100% |  |
